The values below come from patent publication US12150995B2, “IRAK degraders and uses thereof” (Kymera Therapeutics, Inc., priority 2020, dated 2024).

The test concerns the target T1, IRAK4 (Homo sapiens, UniProt Q9NWZ3).
T1 construct: endogenous in cells; host or cells: OCI-LY10
T1 sequence (Q9NWZ3 1-460): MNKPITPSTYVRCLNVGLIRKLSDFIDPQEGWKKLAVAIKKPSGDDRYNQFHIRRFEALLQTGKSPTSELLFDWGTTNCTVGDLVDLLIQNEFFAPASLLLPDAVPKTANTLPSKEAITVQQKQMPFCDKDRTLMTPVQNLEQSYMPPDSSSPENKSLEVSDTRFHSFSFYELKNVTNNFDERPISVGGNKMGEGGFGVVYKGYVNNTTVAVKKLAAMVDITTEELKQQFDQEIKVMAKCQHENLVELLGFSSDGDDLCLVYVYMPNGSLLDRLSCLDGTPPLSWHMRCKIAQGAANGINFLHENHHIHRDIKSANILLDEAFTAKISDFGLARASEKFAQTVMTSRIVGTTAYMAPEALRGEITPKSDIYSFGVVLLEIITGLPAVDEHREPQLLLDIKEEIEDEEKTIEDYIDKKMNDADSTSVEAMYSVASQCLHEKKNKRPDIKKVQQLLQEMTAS
The test is described as follows: IRAK4 MSD Degradation in OCI-LY10. To be noted: OCI-LY10 cells, Meso Scale Discovery, incubated 4 to 24 hours. It counts as cell-based. The method, then:
Degradation of IRAK4 in OCI-LY10 was quantitatively measured using Meso Scale Discovery technology. OCI-LY10 cells were seeded in 96-well plates (Corning 3799) with a density of 300,000 cells per well in 100 μL fresh media. Compounds were then added to the assay plates with a final top concentration of 1 to 10 μM in a 1:3 dilution series with total of 8 doses. The assay plates were then incubated for 4 to 24 hours at 37° C. under 5% CO2. The assay plates were then centrifuged for 5 minutes and the cell pellets were treated with 100 μL/well RIPA lysis buffer (Boston BioProducts BP-115D) with proteinase inhibitors. To prepare MSD assay plates (Meso Scale Discovery Catalog number L15XA-3), the plates were coated with 2 μg/mL capture antibody (mouse Anti-IRAK4 antibody [2H9], ab119942) in PBS, at 40 μL/well. The plates were then incubated overnight at 4° C., washed 3 times with 150 μL/well TBST buffer (Cell Signaling Technology, Catalog number 9997S) and blocked with 150 μL/well blocking buffer (Meso Scale Discovery Catalog number R93BA-4). Cell lysates were then added to MSD assay plates and the plates were incubated at room temperature for 1 hour. The plates were then washed 3 times with 150 μL/well TBST buffer and […] primary detection antibody (rabbit Anti-IRAK4 antibody [Y279], from Abcam. Catalog number ab32511, 1 μg/mL). The assay plates were then incubated at room temperature for 1 hour, washed 3 times with 150 μL/well TBST buffer and 254/well secondary detection antibody, SULFO-TAG anti-rabbit antibody were added (anti rabbit antibody from Meso Scale Discovery, Catalog number R32AB-1, 1 μg/mL). The assay plates were then incubated at room temperature for 1 hour, washed 3 times with 150 μL/well TBST buffer, and 150 μL/well MSD reading buffer (Meso Scale Discovery catalog number R92TC-2) was added. The plates were then analyzed by a MSD reader (Meso Scale Discovery, Model Quick Plex SQ 120). The data was then analyzed by software Prism 7.0 from GraphPad and the dose-depended IRAK4 degradation were fit using a three-parameter logistic equation to calculate DC50.
The letter codes for IRAK4 DC50 include: A (<0.01 μM); B (0.01-0.05 μM); C (0.05-0.1 μM); D (0.1-0.2 μM); and E (>0.2 μM).

Bounds are passed on as bounds.

`COc1cc2nn([C@H]3C[C@H](CN4CCC(c5cccc6c5n(C)c(=O)n6C5CCC(=O)NC5=O)CC4)C3)cc2cc1NC(=O)c1cccc(C(F)(F)F)n1` (stereo partly drawn) [I-33]: the 50% degradation concentration (DC50) is less than 10 nM. As for `COc1cc2nn([C@H]3CC[C@H](CN4CCN(c5cccc6c5n(C)c(=O)n6C5CCC(=O)NC5=O)CC4)CC3)cc2cc1NC(=O)c1cncc(C#N)c1` (stereo partly drawn) [I-165], the 50% degradation concentration (DC50) was less than 10 nM. Take `CC(C)(O)c1cc2nc([C@H]3CC[C@H](C(=O)N4CCC5(CC4)CC(CCNc4cccc6c4C(=O)N(C4CCC(=O)NC4=O)C6=O)C5)CC3)sc2cc1NC(=O)c1cccc(C(F)F)n1` (stereo partly drawn) [I-457]: the half-maximal degradation concentration (DC50) lay in the range of 100 to 200 nM. In the case of `COc1cc2nn([C@H]3C[C@@H](CN(C)C4CCN(c5cccc6c5n(C)c(=O)n6C5CCC(=O)NC5=O)CC4)C3)cc2cc1NC(=O)c1cccc(C(F)(F)F)n1` (stereo partly drawn) [I-32, N-[2-[3-[[[1-[1-(2,6-dioxo-3-piperidyl)-3-methyl-2-oxo-benzimidazol-4-yl]-4-piperidyl]-methyl-amino]methyl]cyclobutyl]-6-methoxy-indazol-5-yl]-6-(trifluoromethyl)pyridine-2-carboxamide], the 50% degradation concentration (DC50) is less than 10 nM. In the case of `CC(C)Nc1cc(-n2ccc3cc(C#N)cnc32)ncc1C(=O)N[C@H]1CC[C@H](CN2CCN(c3cccc4c3n(C)c(=O)n4C3CCC(=O)NC3=O)CC2)CC1` (stereo partly drawn) [I-361] it was less than 10 nM; in that of `CC(C)(O)c1cc2nc([C@H]3CC[C@H](CN4CC5(CC(CCNc6cccc7c6C(=O)N(C6CCC(=O)NC6=O)C7=O)C5)C4)CC3)cn2cc1NC(=O)c1cccc(C(F)(F)F)n1` (stereo partly drawn) [I-12], 10 to 50 nM.

`CC(C)Nc1cc(-n2ccc3cc(C#N)cnc32)ncc1-c1cn([C@H]2CC[C@H](CN3CCC(c4cccc5c4n(C)c(=O)n5C4CCC(=O)NC4=O)CC3)CC2)nn1` (stereo partly drawn) [I-159] displayed a DC50 of less than 10 nM. `Cc1cccc(C(=O)Nc2cc3sc([C@H]4CC[C@H](CN5C[C@@H]6C[C@H]5CN6CCNc5cccc6c5C(=O)N(C5CCC(=O)NC5=O)C6=O)CC4)nc3cc2C(C)(C)O)n1` (stereo partly drawn) [I-473] displayed a DC50 of 100 to 200 nM. The compound `CC(C)(O)c1cc2nn([C@H]3CC[C@H](CN4CCC(c5cccc6c(N7CCC(=O)NC7=O)cncc56)CC4)CC3)cc2cc1NC(=O)c1cccc(C(F)(F)F)n1` [I-78, N-[2-[4-[[4-[4-(2,4-dioxohexahydropyrimidin-1-yl)-8-isoquinolyl]-1-piperidyl]methyl]cyclohexyl]-6-(1-hydroxy-1-methyl-ethyl)indazol-5-yl]-6-(trifluoromethyl)pyridine-2-carboxamide] gave a DC50 of less than 10 nM.

As for `COc1cc2nn([C@H]3CC[C@H](CN4CCN(c5cccc6c(N7CCC(=O)NC7=O)ncnc56)CC4)CC3)cc2cc1NC(=O)c1cccc(C(F)(F)F)n1` [I-380], the DC50 lay within 10 to 50 nM. In the case of `COc1cc2nn([C@H]3CC[C@H](CN(C)C4CCN(c5cccc6c(N7CCC(=O)NC7=O)cncc56)CC4)CC3)cc2cc1NC(=O)c1cccc(C(F)(F)F)n1` [I-96] it was less than 10 nM; in that of `Cn1c(=O)n(C2CCC(=O)NC2=O)c2cccc(C3CCN(C(=O)[C@H]4CC[C@H](n5cc6cc(NC(=O)c7cccc(C(F)(F)F)n7)ccc6n5)CC4)CC3)c21` (stereo partly drawn) [I-94, N-[2-[4-[4-[1-(2,6-dioxo-3-piperidyl)-3-methyl-2-oxo-benzimidazol-4-yl]piperidine-1-carbonyl]cyclohexyl]indazol-5-yl]-6-(trifluoromethyl)pyridine-2-carboxamide], greater than 200 nM; in that of `CC(C)Nc1c(C(=O)N[C@H]2CC[C@H](CN3CCN(c4cccc5c4n(C)c(=O)n5C4CCC(=O)NC4=O)CC3)CC2)cnc2c1Oc1ccc(C#N)cc1O2` (stereo partly drawn) [I-410], greater than 200 nM. In the case of `Cn1c(=O)n(C2CCC(=O)NC2=O)c2ccc(Cl)c(C3CCN(C[C@H]4CC[C@H](n5cc6cc(NC(=O)c7cccc(C(F)(F)F)n7)ccc6n5)CC4)CC3)c21` (stereo partly drawn) [I-106] it was 10 to 50 nM.

Regarding `COc1cc2nn([C@H]3CC[C@H](CN4CCC5(CC4)CC(CCNc4cccc6c4C(=O)N(C4CCC(=O)NC4=O)C6=O)C5)CC3)cc2cc1NC(=O)c1cnn2ccc(C(F)(F)F)nc12` (stereo partly drawn) [I-15], the DC50 was greater than 200 nM.

As usually defined, the DC50 is the concentration at which degradation of the target reaches its halfway point. Read a low DC50 as degradation at low concentration.
